According to US20150240220A1, “NOVEL UDP-GLYCOSYLTRANSFERASE DERIVED FROM GINSENG AND USE THEREOF” (KOREA ADVANCED INSTITUTE OF SCIENCE AND TECHNOLOGY, priority 2012, published 2015):

Experiments:
PgUGT74A1 [1] = experiment: In vitro glycosyltransferase assay with purified recombinant PgUGT74A1; assay type: biochemical, Panax ginseng; conditions: ginsenoside 5 mM, UDP-glucose 50 mM, enzyme 30 μg, pH 7, 35° C., 12 hours
Protocol: (§1) A glycosyltransferase assay was performed in a reaction buffer (10 mM PBS buffer, pH 7) containing the purified PgUGT74A1 or PgUGT94B1 (30 μg), a ginsenoside compound (5 mM) and UDP-glucose (50 mM). For this assay, 10 different types of ginsenosides including PPD (Protopanaxadiol), PPT (Protopanaxatriol), Compound K (C-K), ginsenoside Rg3, Rh2, F2, Rd, Rg2, Rh1 and F1 were used, and the structures of the ginsenosides are shown in FIG. 1.
(§2) The reaction mixture was incubated at 35° C. for 12 hours, and then the products were analyzed by thin-layer chromatography (TLC) or high performance liquid chromatography (HPLC).
(§3) TLC analysis was performed using a mobile phase (acetone:methanol:DDW=65:35:10 vol/vol) and a 60F254 silica gel plate (Merck, Germany). The resolved product on the TLC plate was detected by spraying the plate with 10% (vol/vol) sulfuric acid (H2SO4) and heating it at 110° C. for 5 minutes.
(§4) HPLC analysis was performed using ODS (2) C18 column (Phenomenex, USA). Water and acetonitrile gradient application time; and a component ratio are as follows: at a flow rate of 1 ml per minute for 0 minute, 68% water and 32% acetonitrile; 8 minutes, 35% water and 65% acetonitrile; 12 minutes, 0% water and 100% acetonitrile; 20 minutes, 0% water and 100% acetonitrile; 20.1 minutes, 68% water and 32% acetonitrile; and 28 minutes, 68% water and 32% acetonitrile.
(§5) Ginsenosides were detected by using a UV-detector (Younglin, Korea) at a wavelength of 203 nm.
First, the recombinant PgUGT of Example 1, PgUGT74A1, was incubated with 10 different types of ginsenosides (PPD, C-K, Rh2, F2, Rg3, Rd, Rg2, Rh1, F1 and PPT) in the presence of UDP-glucose, and the products converted by the recombinant PgUGT were analyzed by TLC.

PgUGT94B1 [2] = experiment: In vitro glycosyltransferase assay with purified recombinant PgUGT94B1; assay type: biochemical, Panax ginseng; conditions: ginsenoside 5 mM, UDP-glucose 50 mM, enzyme 30 μg, pH 7, 35° C., 12 hours
Protocol: as §1, §2, §3, §4, §5
First, the recombinant PgUGT of Example 1, PgUGT94B1, was incubated with 10 different types of ginsenosides (PPD, C-K, Rh2, F2, Rg3, Rd, Rg2, Rh1, F1 and PPT) in the presence of UDP-glucose, and then the products converted by the recombinant PgUGT were analyzed by TLC.

PgUGT74A1 and PgUGT94B1 = experiment: In vitro glycosyltransferase assay with both PgUGT74A1 and PgUGT94B1 in a single reaction tube; assay type: biochemical, Panax ginseng; conditions: both enzymes in a single reaction tube, in the presence of UDP-Glc
Protocol: PPD (upper panel) or C-K (lower panel) was incubated with both of PgUGT74A1 and PgUGT94B1 in the presence of UDP-Glc. Then the reaction mixture was analyzed by HPLC. […] Rg3 and Rd converted by the above two enzymes are marked as black triangles;
as §1, §2
HPLC analysis was performed using ODS (2) C18 column (Phenomenex, USA). […]
Ginsenosides were detected by using a UV-detector (Younglin, Korea) at a wavelength of 203 nm. […]

PgUGT74A1 [3] = experiment: Quantitative RT-PCR of PgUGT74A1 expression in ginseng leaves sprayed with MeJA; assay type: in vivo, Panax ginseng; conditions: 200 μM MeJA sprayed on leaves of 15-month-old ginseng everyday for 5 days, samples on 6th day; normalized to tubulin
Protocol: (§6) Total RNA was isolated from the leaf or root of 15-month-old ginseng using a spectrum plant total RNA kit (Sigma-Aldrich). 200 μM methyl jasmonate (MeJA) was sprayed onto the leaves of ginseng everyday for a total of 5 days, and samples were collected on the 6th day. The 1 μg of total RNA was used for cDNA synthesis.
(§7) Expression levels of different genes were examined by a quantitative RT-PCR using the primer sets listed in the following Table 2, and the results were normalized to the expression level of tubulin.
(§8) The 15-month old ginseng grown in a growth chamber under LD conditions was collected, and MeJA was sprayed onto its leaves everyday for a total of 5 days. To analyze expression level of the ginsenoside biosynthetic genes, samples were collected on the 6th days. […] However, expression of PgPPTS was not induced by MeJA under the conditions of the present invention.

PgUGT94B1 [4] = experiment: Quantitative RT-PCR of PgUGT94B1 expression in ginseng leaves sprayed with MeJA; assay type: in vivo, Panax ginseng; conditions: 200 μM MeJA sprayed on leaves of 15-month-old ginseng everyday for 5 days, samples on 6th day; normalized to tubulin
Protocol: as §6, §7, §8

[5] = test system: PgDS (dammarenediol-II synthase); experiment: Quantitative RT-PCR of PgDS expression in ginseng leaves sprayed with MeJA; assay type: in vivo, Panax ginseng; conditions: 200 μM MeJA sprayed on leaves of 15-month-old ginseng everyday for 5 days, samples on 6th day; normalized to tubulin
Protocol: as §6, §7, §8

[6] = test system: PgPPDS (protopanaxadiol synthase); experiment: Quantitative RT-PCR of PgPPDS expression in ginseng leaves sprayed with MeJA; assay type: in vivo, Panax ginseng; conditions: 200 μM MeJA sprayed on leaves of 15-month-old ginseng everyday for 5 days, samples on 6th day; normalized to tubulin
Protocol: as §6, §7, §8

[7] = test system: PgPPTS (protopanaxatriol synthase); experiment: Quantitative RT-PCR of PgPPTS expression in ginseng leaves sprayed with MeJA; assay type: in vivo, Panax ginseng; conditions: 200 μM MeJA sprayed on leaves of 15-month-old ginseng everyday for 5 days, samples on 6th day; normalized to tubulin
Protocol: as §6, §7, §8

ginseng = experiment: Concentrations of 4 major ginsenosides after spraying MeJA onto the leaf of ginseng; assay type: in vivo, Panax ginseng; conditions: MeJA sprayed onto the leaf of ginseng; versus untreated
Protocol: as §6
In this regard, the concentrations of 4 major ginsenosides were measured after spraying MeJA onto the leaf of ginseng. The treatment of MeJA increased the concentrations of two PPD-type ginsenosides, Rd and Rb1, by 1.55 and 1.14 times respectively (FIG. 6c). In addition, the treatment of MeJA increased the concentrations of two PPT-type ginsenosides, Rg1 and Re, by 2.61 and 1.45 times respectively.

Row | Structure (SMILES) | conversion of the ginsenoside by PgUGT74A1 (HPLC analysis) (PgUGT74A1 [1]) | conversion of the ginsenoside by PgUGT94B1 (HPLC analysis) (PgUGT94B1 [2]) | conversion of the ginsenoside by PgUGT94B1 (TLC analysis) (PgUGT94B1 [2]) | conversion of the ginsenoside by PgUGT74A1 (TLC analysis) (PgUGT74A1 [1]) | conversion of the ginsenoside by PgUGT74A1 and PgUGT94B1 together (HPLC analysis) (PgUGT74A1 and PgUGT94B1) | also measured
1 | CC(C)=CCC[C@](C)(O)[C@H]1CC[C@]2(C)[C@@H]1[C@H](O)C[C@@H]1[C@@]3(C)CC[C@H](O[C@@H]4O[C@H](CO)[C@@H](O)[C@H](O)[C@H]4O)C(C)(C)[C@@H]3CC[C@]12C [ginsenoside Rh2] | did not convert ginsenoside Rh2 and F2 | converted ginsenoside Rh2 and F2 into ginsenoside Rg3 and Rd respectively | converted ginsenoside Rh2 and ginsenoside F2 into ginsenoside Rg3 and ginsenoside Rd respectively | – | – | –
2 | CC(C)=CCC[C@](C)(O[C@@H]1O[C@H](CO)[C@@H](O)[C@H](O)[C@H]1O)[C@H]1CC[C@]2(C)[C@@H]1[C@H](O)C[C@@H]1[C@@]3(C)CC[C@H](O[C@@H]4O[C@H](CO)[C@@H](O)[C@H](O)[C@H]4O)C(C)(C)[C@@H]3CC[C@]12C [ginsenoside F2] | did not convert ginsenoside Rh2 and F2 | converted ginsenoside Rh2 and F2 into ginsenoside Rg3 and Rd respectively | converted ginsenoside Rh2 and ginsenoside F2 into ginsenoside Rg3 and ginsenoside Rd respectively | – | – | –
3 | CC(C)=CCCC(C)(O)[C@H]1CC[C@]2(C)[C@@H]1[C@H](O)C[C@@H]1[C@@]3(C)CC[C@H](O)C(C)(C)[C@@H]3CC[C@]12C (stereo in doubt) [PPD, Protopanaxadiol] | converted PPD and C-K into ginsenoside Rh2 and F2 respectively | did not convert PPD and C-K into other ginsenosides | – | converted PPD and C-K into ginsenoside Rh2 and ginsenoside F2 respectively | successfully converted into Rg3 | –
4 | CC(C)=CCC[C@](C)(O[C@@H]1O[C@H](CO)[C@@H](O)[C@H](O)[C@H]1O)[C@H]1CC[C@]2(C)[C@@H]1[C@H](O)C[C@@H]1[C@@]3(C)CC[C@H](O)C(C)(C)[C@@H]3CC[C@]12C [C-K, Compound K] | converted PPD and C-K into ginsenoside Rh2 and F2 respectively | did not convert PPD and C-K into other ginsenosides | – | converted PPD and C-K into ginsenoside Rh2 and ginsenoside F2 respectively | successfully converted into Rd | –
5 | CC/C=C\C[C@H]1C(=O)CC[C@@H]1CC(=O)OC [MeJA, Methyl(1R,2R)-3-Oxo-2-(2Z)-2-pentenyl-cyclopentaneacetate] | – | – | – | – | – | expression level of PgUGT74A1 after MeJA treatment (PgUGT74A1 [3]): higher expression level; expression level of PgUGT94B1 after MeJA treatment (PgUGT94B1 [4]): higher expression level; expression of PgDS after MeJA treatment [5]: enhanced the expression; expression of PgPPDS after MeJA treatment [6]: enhanced the expression; expression of PgPPTS after MeJA treatment [7]: not induced; increase of the concentration of PPD-type ginsenoside Rb1 by MeJA treatment (ginseng): 1.14 times; increase of the concentration of PPD-type ginsenoside Rd by MeJA treatment (ginseng): 1.55 times; increase of the concentration of PPT-type ginsenoside Re by MeJA treatment (ginseng): 1.45 times; increase of the concentration of PPT-type ginsenoside Rg1 by MeJA treatment (ginseng): 2.61 times
